Series [1] deals with M. haemolytica (OSU-012103-BHI). Particulars: 10 mg/kg.
The next series concerns IL-1β. Description: Whole blood assay, LPS stimulation, MSD cytokine detection. It is filed as cell-based, bovine. The settings on record: top dose 500 μM; cellular toxicity signal.
A further series has as its system IL-6. Description: Plasma IL-6 biomarker in bovine M. haemolytica challenge.
For series [2], the system named is Bovine primary cells (PBMCs, PMN/neutrophils) and tissue (trachea, lung) protein homogenates. Description: Binding partner identification (NPOT, mass spectrometry). The settings on record: as compared to gamithromycin. The protocol:
To further characterize the direct activity of the compounds of the invention, experiments to identify the drug's direct binding host partners(s) were performed with the aim of identifying the potential biological targets. Bovine primary cells (peripheral blood mononuclear cells [PBMCs] and polymorphonuclear cells [PMN/neutrophils]) and tissue (trachea, lung) protein homogenates were mixed with M9 and the macrolide, gamithromicin as a comparator. Tissue interactions were allowed to form using a heterogeneous assembly method (nematic protein organization technique, NPOT; Inoviem Scientific); and traditional western blots to identify native-structure proteins bound to the compound. Mass spectrometry analysis identified eight proteins involved in the interaction with M9 as compared to gamithromycin. The antibacterial macrolide gamithromycin was used as a comparator to differentiate specific binding to M9. These proteins were considered to be either direct binding partners of the drug or closely involved in the drug:target interaction (Table 6).

For the next series, the system named is natural BRD infection. Description: Natural bovine respiratory disease study. Particulars: 14-day observation. It is filed as in vivo, beef calves.
The next series addresses T1, LCN2 (Bos taurus, UniProt A0AAA9TIZ6).
T1 sequence (A0AAA9TIZ6 1-200): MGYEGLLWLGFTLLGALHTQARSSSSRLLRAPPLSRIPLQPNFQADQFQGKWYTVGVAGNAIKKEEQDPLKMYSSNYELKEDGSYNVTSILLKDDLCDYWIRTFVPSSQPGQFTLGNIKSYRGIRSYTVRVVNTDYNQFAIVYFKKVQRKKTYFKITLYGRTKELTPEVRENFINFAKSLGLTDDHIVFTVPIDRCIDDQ
Nature of the series: Surface plasmon resonance (SPR), KD. Type of series: binding. Particulars: biologically relevant pH. From the text: (§1) In order to add further clarity to binding partner identification, surface plasma resonance (SPR) technology was used. […] These targets were unique to this drug as compared to gamithromycin, a macrolide antibiotic used in the treatment of BRD. Both targets fit the paradigm that the immunological mechanism of action is linked to the pathways that are both of key importance as being dysregulated in BRD and modulated by M9. LCN2 is expressed by neutrophils upon activation of toll-like receptors (TLRs) and is a component of the innate inflammatory response. […] Very little information exists to date on SLAMF9. It is a member of a family of signal adaptor proteins that is thought to lack signal transduction capabilities.
(§2) KD is the equilibrium dissociation constant that was used to present the drug/target affinity. The identified targets associated with drug were measured by surface plasmon resonance (SPR) to define the KD.

The target of the next series is SLAMF9 (Bos taurus, UniProt E1BNF9). Nature of the series: Surface plasmon resonance (SPR), KD. Type of series: binding. The settings on record: biologically relevant pH.
Source text: as §1, §2

Another series concerns P. multocida 46572. Nature of the series: In vivo mouse lung infection challenge model (murine). Further details: species or system CD-1 female mice. The method in brief: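 CD-1 female mice were challenged intranasally with mid-log P. multocida 46572 (target 5×10^2 CFU/mouse), then given 20 mg/kg subcutaneously in buffered (~pH 5.4) propylene glycol/monothioglycerol/water. Mortality was followed to Day 10, analysed by generalized mixed model and survival analysis; harmonized survival is relative to vehicle and positive controls.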

Another series has as its system TNF-α. Description: Whole blood assay, LPS stimulation, MSD cytokine detection. The settings on record: Bos taurus, fresh whole bovine blood. Type of series: cell-based.

Sequence of SLAMF9 (E1BNF9 1-289): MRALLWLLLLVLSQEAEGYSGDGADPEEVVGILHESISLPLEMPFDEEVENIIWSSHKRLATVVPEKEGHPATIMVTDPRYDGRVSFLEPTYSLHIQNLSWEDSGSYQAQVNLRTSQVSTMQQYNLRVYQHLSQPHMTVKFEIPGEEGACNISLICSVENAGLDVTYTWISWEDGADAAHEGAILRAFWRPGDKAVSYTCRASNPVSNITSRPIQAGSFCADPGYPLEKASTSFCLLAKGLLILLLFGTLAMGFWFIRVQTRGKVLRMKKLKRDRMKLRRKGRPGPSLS
Method for natural BRD infection: The primary clinical endpoint for efficacy was treatment failure/success over a 14-day observation period. Clinically normal beef calves (150-200 kg) at moderate risk for BRD were dosed on arrival to the feedlot. Animals (N=114/group) received saline (T01), 5 mg/kg M9 (T02) or 10 mg/kg M9 (T03); or Zactran (T04). […] Bacterial isolates were collected at necropsy and MICs were evaluated (Table 4).

With `CCCNC[C@]1(O)[C@H](C)O[C@@H](O[C@H]2[C@H](C)[C@@H](O[C@@H]3O[C@H](C)C[C@H](NC)[C@H]3O)[C@](C)(O)C[C@@H](C)CN[C@H](C)[C@@H](O)[C@](C)(O)[C@@H](CC)OC(=O)[C@@H]2C)C[C@@]1(C)OC` [Example M9, (2R,3S,4R,5R,8R,10R,11R,12S,13S,14R)-2-ethyl-3,4,10-trihydroxy-13-(((2R,4R,5S,6S)-5-hydroxy-4-methoxy-4,6-dimethyl-5-((propylamino)methyl)-tetrahydro-2H-pyran-2-yl)oxy)-11-(((2S,3R,4S,6R)-3-hydroxy-6-methyl-4-(methylamino)tetrahydro-2H-pyran-2-yl)oxy)-3,5,8,10,12,14-hexamethyl-1-oxa-6-azacyclopentadecan-15-one], in series [1] (inhaled or nasal), the lung lesion scores amounted to 29. Besides, the mortality in [1] (separate study, vs. saline 38.9%) stood at 13%. For the same molecule, in the series on IL-1β, the “overstimulation of IL-1B” value is above 500 µM. In the series on IL-6, the IL-6 levels result was “significantly reduced”. Moreover, in series [2], the “proteins involved in the interaction” value is “eight”. Also, the figures for the “Percent failure (treatment failure)” value in the series with natural BRD infection (5 mg/kg (T02)) and in the series on natural BRD infection (10 mg/kg (T03)) were 19.3% and 8.8%, respectively. Also, the “drug/target binding, LCN2” value on LCN2 is reported as “direct binding targets”. Besides, the “drug/target binding, SLAMF9” value at SLAMF9 is reported as “direct binding targets”. Besides, the Mouse survival in the series on P. multocida 46572 (M9 positive control, 20 mg/kg) is on record as 90-100%. Also, in the series with P. multocida 46572 (mouse, in vivo), the “clinical efficacy, P. multocida infection in mice” value is given as “clinically efficacious”. Moreover, the half-maximal inhibitory concentration (IC50) with TNF-α amounted to 250 µM.

These data come from patent US12390441B2, “Immunomodulating o-het/aryl azalides” (Zoetis Services LLC, priority 2020, dated 2025).
